Measurements from patent US20260284009A1, “COMPOUNDS FOR NOS-RELATED CANCERS AND METHODS OF USE” (YISSUM RESEARCH DEVELOPMENT COMPANY OF THE HEBREW …, priority 2023, published 2026).

Assays:
U87-MG cells [1] = test: Nitrate and nitrite levels in U87-MG cells; type: cell-based, human; conditions: 100 μM 7-NI, 500 or 1000 μM L-NIL, combinations of both, n=3
Experimental: In FIGS. 10A-10B, data are presented as mean±SEM. Statistical significance was determined using a One-way ANOVA with Bonferroni's multiple comparisons tests. *P<0.05, **P<0.01, and ns=not significant.
FIG. 10A: Quantitative analysis of nitrate and nitrite levels in U87-MG cells following administration of 0.1% DMSO (“Vehicle”) (n=3) or 100 μM 7-NI (“7-NI”) (n=3).
FIG. 10B: Quantitative analysis of nitrate and nitrite levels in U87-MG cells following administration of control (n=3), 500 μM L-NIL (“L-NIL 500”) (n=3), or 1000 μM L-NIL (“L-NIL 1000”) (n=3).
Data are expressed as the mean±SEM.

U87-MG cells [2] = test: Clonogenic survival of U87-MG cells; type: cell-based, human; conditions: 100 μM 7-NI, 500 or 1000 μM L-NIL, combinations 100 μM 7-NI + 500 or 1000 μM L-NIL
Excerpt: (§1) Data are presented as mean±SEM.
as §1

U87-MG cells [3] = test: Clonogenic survival (colony) assay in U87-MG cells; type: cell-based, human
Experimental: (§2) Human glioblastoma U87-MG cells were obtained from the American Type Culture Collection (ATCC) and maintained in Dulbecco's modified Eagle's Medium (DMEM) and Ham's F-12 (1:1) supplemented with 10% fetal bovine serum, 2 mM L-glutamine, and 100 U/ml penicillin-G/[…] streptomycin in the humidified atmosphere (37° C., 5% CO2). Cells were plated onto 25 cm^2 and 75 cm^2 at a density of 7.0×10^5 and 2.1×10^6 cells/cm^2 respectively for Western blotting (WB) and 1×10^5 for immunofluorescence. The U87-MG cells were treated with 100 μM 7-nitroindazole (7-NI) for 24 hr.
Cells were seeded into 6-well plates at concentrations of 500/well or 1000/well in triplicates. After 24 hours, 7-NI was added, or cells were transiently transfected with siRNA-nNOS, as described above, before changing to serum-containing medium. […] Colonies were stained with crystal violet, washed with PBS, air-dried, and imaged. The colonies were visualized using ImageJ software. Cell colonies of greater than 50 cells were identified and counted.
(§3) In a particular example, in vitro and in vivo experiments were performed using U87-MG cells and U87-MG-xenografted mice, respectively, as a glioblastoma model.

U87-MG cells [4] = test: Nitrite (Griess) assay in U87-MG cells; type: cell-based, human
Experimental: as §2, §3

U87-MG-xenografted mice = test: Tumor volume and tumor mass in U87-MG-xenografted mice; type: in vivo; conditions: for tumor volume in a subset of mice: subset (top 4-5, smallest tumor volume) of U87-MG-xenografted mice, 10 mg/kg L-NIL or both
Experimental: In FIGS. 16A-16B, data are expressed as the mean±SEM. Statistical significance was determined using a One-way ANOVA followed by Fisher's LSD multiple comparison post hoc test. **P<0.01, ***P<0.001, ****P<0.0001, and ns=not significant.
FIG. 16A: Temporal tumor volume comparison for U87-MG-xenografted mice receiving treatment with 0.1% DMSO (“vehicle”) (n=10), 80 mg/kg 7-NI (“7-NI”) (n=10), 10 mg/kg L-NIL (“L-NIL”) (n=10), or 80 mg/kg 7-NI and 10 mg/kg L-NIL concurrently administered (“Combo”) (n=15).
FIG. 16B: Quantitative analysis of tumor volume for U87-MG-xenografted mice after 8 days for the experiments of FIG. 16A.
In FIGS. 17A-17B, data are expressed as the mean±SEM. Statistical significance was determined using a One-way ANOVA followed by Fisher's LSD multiple comparison post hoc test. *P<0.05, ****P<0.0001, and ns=not significant.
FIG. 17B: Quantitative analysis of tumor volume after 8 days for the subset of U87-MG-xenografted mice for the experiments of FIG. 17A.
In FIGS. 18A-18B, data are expressed as the mean.
Data are expressed as the mean±SEM. Statistical significance was determined using a One-way ANOVA with Bonferroni's multiple comparisons tests. **P<0.01, ****P<0.0001, ns=not significant.
Data are expressed as the mean±SEM. Statistical significance was determined using a One-way ANOVA with Bonferroni's multiple comparisons tests. *P<0.05, **P<0.01, ***P<0.001, and ****P<0.0001.

[5] = U87-MG-xenografted mice, 80 mg/kg 7-NI, 10 mg/kg L-NIL or both concurrently, after 8 days, vs vehicle

| Compound | nitrate and nitrite levels (U87-MG cells [1]) | clonogenic survival (U87-MG cells [2]) | colony growth (U87-MG cells [3]; 7-NI, vs control and negative control (0.1% DMSO)) | nitrite and nitrate content (Griess assay) (U87-MG cells [4]; 7-NI) | tumor volume (U87-MG-xenografted mice; [5]) | tumor volume (U87-MG-xenografted mice; U87-MG-xenografted mice, 20, 40 or 80 mg/kg 7-NI intraperitoneal for 14 days, vs vehicle) | tumor mass (U87-MG-xenografted mice; U87-MG-xenografted mice, 20, 40 or 80 mg/kg 7-NI, after 14 days, vs vehicle) | tumor volume in a subset of mice (U87-MG-xenografted mice; 80 mg/kg 7-NI, after 8 days) | colony growth (U87-MG cells [3]; higher dose of L-NIL, both experiments, vs control) | colony growth (U87-MG cells [3]; lower dose of L-NIL, one experiment (FIG. 9), vs control) | colony growth (U87-MG cells [3]; lower dose of L-NIL, second experiment (FIGS. 8C-8D), reduced vs control) | nitrite and nitrate content (Griess assay) (U87-MG cells [4]; higher dose of L-NIL, one experiment (FIG. 10B), vs control) | nitrite and nitrate content (Griess assay) (U87-MG cells [4]; higher dose of L-NIL, second experiment (FIG. 11), reduced vs control) | nitrite and nitrate content (Griess assay) (U87-MG cells [4]; lower dose of L-NIL, one experiment (FIG. 11), vs control) | nitrite and nitrate content (Griess assay) (U87-MG cells [4]; lower dose of L-NIL, second experiment (FIG. 10B), reduced vs control) |
| --- | --- | --- | --- | --- | --- | --- | --- | --- | --- | --- | --- | --- | --- | --- | --- |
| O=[N+]([O-])c1cccc2cn[nH]c12 [7-NI, 7-nitroindazole] | significant decrease | significant decrease | significantly impacted | dramatic reduction | significantly smaller | significantly smaller | significantly smaller | significantly smaller |  |  |  |  |  |  |  |
| CC(=N)NCCCC[C@H](N)C(=O)O [L-NIL, N^6-(1-iminoethyl)-L-lysine] | significant decrease | significant decrease |  |  | significantly smaller |  |  | significantly smaller | significant decrease | significantly reduced | not statistically significant | significantly reduced | not statistically significant | significantly reduced | not statistically significant |
